Results published in patent US9284321B2, “Piperazino[1,2-a]indol-1-ones and [1,4]diazepino[1,2-a]indol-1-one” (Hoffmann-La Roche Inc., priority 2012, dated 2016).

Columns and labels:
[1] = system: human embryonic stem cell derived neural stem cells (NSCs); test: Neural Stem Cell Proliferation Assay (neurogenesis assay, ATP levels by CellTiterGlo); format: cell-based; conditions: 96 h, compound concentration at which 150% activity of control (100%) is reached, NSC proliferation by ATP level after 4 days incubation, dose response 8 μM to 8 nM
Method in brief: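 Read-out is CellTiterGlo ATP luminescence after 4-day culture (37 °C, 5% CO2) of dual-SMAD-derived human ESC NSCs, dosed 4 h post-seeding at 8 μM to 8 nM (11 points, 2-fold). EC150 marks the concentration reaching 150% of the media-only control (0.25% DMSO).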

SMILES	melting point	EC (150% of control) [1]
Cc1c2n(c3c(-c4cc(F)c(F)c(F)c4)cc(C#N)cc13)CCNC2=O [Example 240, 10-Methyl-1-oxo-6-(3,4,5-trifluorophenyl)-3,4-dihydro-2H-pyrazino[1,2-a]indole-8-carbonitrile]	253 °C	0.11 µM
Cc1c2n(c3c(-c4ccccc4)cc(C#N)cc13)CCNC2=O [Example 241, 10-Methyl-1-oxo-6-phenyl-3,4-dihydro-2H-pyrazino[1,2-a]indole-8-carbonitrile]	253 °C	0.062 µM
Cc1c2n(c3c(-c4ccc(N)nc4)cc(C#N)cc13)CCNC2=O [Example 242, 6-(6-Aminopyridin-3-yl)-10-methyl-1-oxo-3,4-dihydro-2H-pyrazino[1,2-a]indole-8-carbonitrile]	332 °C	0.68 µM
Cc1c2n(c3c(-c4ccncc4)cc(C#N)cc13)CCNC2=O [Example 243, 10-Methyl-1-oxo-6-pyridin-4-yl-3,4-dihydro-2H-pyrazino[1,2-a]indole-8-carbonitrile]	307 °C	0.09 µM
Cc1c2n(c3c(-c4cc(F)c(F)c(F)c4)cc(C#N)cc13)CCCNC2=O [Example 244, 11-Methyl-1-oxo-7-(3,4,5-trifluorophenyl)-2,3,4,5-tetrahydro-[1,4]diazepino[1,2-a]indole-9-carbonitrile]	306 °C	0.47 µM
Cc1c2n(c3c(-c4ccccc4)cc(C#N)cc13)CCCNC2=O [Example 245, 11-Methyl-1-oxo-7-phenyl-2,3,4,5-tetrahydro-[1,4]diazepino[1,2-a]indole-9-carbonitrile]	258 °C	0.095 µM
Cc1c2n(c3c(-c4ccc(F)c(F)c4F)cc(C#N)cc13)CCNC2=O [Example 246, 10-Methyl-1-oxo-6-(2,3,4-trifluorophenyl)-3,4-dihydro-2H-pyrazino[1,2-a]indole-8-carbonitrile]	238 °C	0.084 µM
COc1ccc(-c2cc(C#N)cc3c(C)c4n(c23)CCNC4=O)cc1 [Example 247, 6-(4-Methoxyphenyl)-10-methyl-1-oxo-3,4-dihydro-2H-pyrazino[1,2-a]indole-8-carbonitrile]	285 °C	0.03 µM
N#Cc1cc(-c2cc(F)c(F)c(F)c2)c2c(c1)cc1n2CCCNC1=O [Example 248, 1-Oxo-7-(3,4,5-trifluorophenyl)-2,3,4,5-tetrahydro-[1,4]diazepino[1,2-a]indole-9-carbonitrile]	248.5 °C	0.62 µM
Cc1c2n(c3c(-c4ccncc4)cc(C#N)cc13)CCCNC2=O [Example 250, 11-Methyl-1-oxo-7-pyridin-4-yl-2,3,4,5-tetrahydro-[1,4]diazepino[1,2-a]indole-9-carbonitrile]	285 °C	0.15 µM
Cc1c2n(c3c(-c4ccc(N)nc4)cc(C#N)cc13)CCCNC2=O [Example 251, 7-(6-Aminopyridin-3-yl)-11-methyl-1-oxo-2,3,4,5-tetrahydro-[1,4]diazepino[1,2-a]indole-9-carbonitrile]	306 °C	0.29 µM
N#Cc1cc(-c2ccnc(Cl)c2)c2c(c1)cc1n2CCCNC1=O [Example 257, 7-(2-Chloropyridin-4-yl)-1-oxo-2,3,4,5-tetrahydro-[1,4]diazepino[1,2-a]indole-9-carbonitrile]	286.5 °C	0.54 µM
Cc1ccc(-c2cc(C#N)cc3c(C)c4n(c23)CCNC4=O)cc1 [Example 258, 10-Methyl-6-(4-methylphenyl)-1-oxo-3,4-dihydro-2H-pyrazino[1,2-a]indole-8-carbonitrile]	277 °C	0.035 µM
Cc1c2n(c3c(-c4cccc(F)c4)cc(C#N)cc13)CCNC2=O [Example 259, 6-(3-Fluorophenyl)-10-methyl-1-oxo-3,4-dihydro-2H-pyrazino[1,2-a]indole-8-carbonitrile]	226 °C	0.06 µM
Cc1c2n(c3c(-c4ccc(Cl)c(Cl)c4)cc(C#N)cc13)CCNC2=O [Example 260, 6-(3,4-Dichlorophenyl)-10-methyl-1-oxo-3,4-dihydro-2H-pyrazino[1,2-a]indole-8-carbonitrile]	245 °C	0.12 µM
Cc1c2n(c3c(-c4cc(F)cc(F)c4)cc(C#N)cc13)CCNC2=O [Example 261, 6-(3,5-Difluorophenyl)-10-methyl-1-oxo-3,4-dihydro-2H-pyrazino[1,2-a]indole-8-carbonitrile]	303 °C	0.091 µM
COc1ccc(-c2cc(C#N)cc3c(C)c4n(c23)CCCNC4=O)cc1 [Example 262, 7-(4-Methoxyphenyl)-11-methyl-1-oxo-2,3,4,5-tetrahydro-[1,4]diazepino[1,2-a]indole-9-carbonitrile]	277 °C	0.029 µM

Now from value to molecule, other results behind:

melting point	SMILES	EC (150% of control) [1]
257 °C	N#Cc1ccc(-c2cc(C#N)cc3cc4n(c23)CCCNC4=O)cc1 [Example 237, 7-(4-Cyanophenyl)-1-oxo-2,3,4,5-tetrahydro-[1,4]diazepino[1,2-a]indole-9-carbonitrile]	0.22 µM
211 °C	N#Cc1cc(-c2cc(F)cc(F)c2)c2c(c1)cc1n2CCCNC1=O [Example 238, 7-(3,5-Difluorophenyl)-1-oxo-2,3,4,5-tetrahydro-[1,4]diazepino[1,2-a]indole-9-carbonitrile]	1 µM
210.5 °C	N#Cc1cc(-c2cccc(F)c2)c2c(c1)cc1n2CCCNC1=O [Example 239, 7-(3-Fluorophenyl)-1-oxo-2,3,4,5-tetrahydro-[1,4]diazepino[1,2-a]indole-9-carbonitrile]	0.61 µM
217.5 °C	N#Cc1cc(-c2ccc(Cl)c(Cl)c2)c2c(c1)cc1n2CCCNC1=O [Example 249, 7-(3,4-Dichlorophenyl)-1-oxo-2,3,4,5-tetrahydro-[1,4]diazepino[1,2-a]indole-9-carbonitrile]	0.31 µM
221.5 °C	N#Cc1cc(-c2ccc(Cl)c(F)c2)c2c(c1)cc1n2CCCNC1=O [Example 252, 7-(4-Chloro-3-fluorophenyl)-1-oxo-2,3,4,5-tetrahydro-[1,4]diazepino[1,2-a]indole-9-carbonitrile]	1.38 µM
250.5 °C	Cc1ccc(-c2cc(C#N)cc3cc4n(c23)CCCNC4=O)cc1F [Example 253, 7-(3-Fluoro-4-methylphenyl)-1-oxo-2,3,4,5-tetrahydro-[1,4]diazepino[1,2-a]indole-9-carbonitrile]	0.65 µM
230.5 °C	N#Cc1cc(-c2ccc(OC(F)(F)F)cc2)c2c(c1)cc1n2CCCNC1=O [Example 255, 1-Oxo-7-[4-(trifluoromethoxy)phenyl]-2,3,4,5-tetrahydro-[1,4]diazepino[1,2-a]indole-9-carbonitrile]	0.3 µM
305.5 °C	CS(=O)(=O)c1ccc(-c2cc(C#N)cc3cc4n(c23)CCCNC4=O)cc1 [Example 256, 7-(4-Methylsulfonylphenyl)-1-oxo-2,3,4,5-tetrahydro-[1,4]diazepino[1,2-a]indole-9-carbonitrile]	1.42 µM
